{"source": "the supplement of paper PMC10290057", "system": "HCT116", "test": "efficacy (fitted maximal change in viability relative to DMSO control); higher = less cytotoxic (negative = loss of viability)", "conditions": "48 h", "note": "Structures can show the parent of a compound that is named as a salt.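 Note: Luminescence-based viability readout, five doses per compound, normalized against on-plate DMSO and empty-well controls, followed by dose-response curve fitting for every drug.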", "data": [{"smiles": "C[C@]1(C(=O)N(CCCC(=O)O)Cc2cccc(Cl)c2)CCN1C(=O)c1csc2ccccc12", "note": "[GLPG-0974]", "values": [{"measurement": "efficacy", "value": -21.2, "unit": "%"}]}, {"smiles": "CN(C)CC/C=C1/c2ccccc2COc2ccc(CC(=O)O)cc21", "note": "[Olopatadine hydrochloride]", "values": [{"measurement": "efficacy", "value": 5.52, "unit": "%"}]}, {"smiles": "C[S+]([O-])(=O)NC1=CC2=C(C=C1OC3=CC=CC=C3)C(=O)\\C(=C/O2)NC=O", "note": "[Iguratimod]", "values": [{"measurement": "efficacy", "value": -14.8, "unit": "%"}]}, {"smiles": "CN1CC(=O)\\N=C1\\NC(=O)NC2=CC(=CC=C2)Cl", "note": "[Fenobam]", "values": [{"measurement": "efficacy", "value": 5.7, "unit": "%"}]}, {"smiles": "CCCCC[C@H](O)/C=C/[C@H]1[C@H](O)CC(=O)[C@@H]1CCCCCCC(=O)O", "note": "[Alprostadil]", "values": [{"measurement": "efficacy", "value": -12.3, "unit": "%"}]}, {"smiles": "C=Cc1cc(O)cc2nc(-c3ccc(O)c(F)c3)oc12", "note": "[Prinaberel]", "values": [{"measurement": "efficacy", "value": -14.8, "unit": "%"}]}, {"smiles": "COc1ccccc1C(=O)Nc1cc2c(cc1N1CCCC1)n(C)c(=O)n2C", "note": "[PFI-4]", "values": [{"measurement": "efficacy", "value": -64, "unit": "%"}]}, {"smiles": "COc1ccc(/C=C/C(=O)Nc2ccccc2C(=O)O)cc1OC", "note": "[Tranilast]", "values": [{"measurement": "efficacy", "value": -8.29, "unit": "%"}]}, {"smiles": "CCC(C)(C)c1ccc(CC(C)CN2C[C@@H](C)O[C@@H](C)C2)cc1", "note": "(some centres not stated) [Amorolfine hydrochloride]", "values": [{"measurement": "efficacy", "value": -10, "unit": "%"}]}, {"smiles": "CC(C)NC(=O)N1CC[C@@H](C1)NC/2=N/C3=C(C=CC(=C3)F)N(CC(F)F)C4=C2C=C(Cl)C=C4", "note": "[NVS-PAK1-1]", "values": [{"measurement": "efficacy", "value": -21.2, "unit": "%"}]}, {"smiles": "CC(C)(C)C(=O)CN1C(=O)[C@H](NC(=O)Nc2cccc(C(=O)O)c2)CN(C2CCCCC2)c2ccccc21", "note": "[Nastorazepide]", "values": [{"measurement": "efficacy", "value": -4.67, "unit": "%"}]}, {"smiles": "C1C\\N=C(\\NC(C2CC2)C3CC3)O1", "note": "[Rilmenidine]", "values": [{"measurement": "efficacy", "value": -6.97, "unit": "%"}]}, {"smiles": "C[S+](=O)([O-])c1ccc(C(=O)Nc2ccc(Cl)c(-c3ccccn3)c2)c(Cl)c1", "note": "[Vismodegib]", "values": [{"measurement": "efficacy", "value": -23.8, "unit": "%"}]}, {"smiles": "COc1ccc([S+](=O)([O-])Nc2cc(-c3csc(C#N)c3)ccc2C)cc1", "note": "[EL-102]", "values": [{"measurement": "efficacy", "value": -62, "unit": "%"}]}, {"smiles": "CC(N[C@H]1C[C@@H]1c1ccccc1)c1ccc2c(c1)OCCO2", "note": "(some centres not stated) [LSD1-C76]", "values": [{"measurement": "efficacy", "value": -23.9, "unit": "%"}]}, {"smiles": "OCc1ccc(-c2ccc(-c3ccc(CO)s3)o2)s1", "note": "[RITA]", "values": [{"measurement": "efficacy", "value": -46, "unit": "%"}]}, {"smiles": "Nc1c2c(nc3ccccc13)CCCC2", "note": "[Tacrine hydrochloride]", "values": [{"measurement": "efficacy", "value": -50.9, "unit": "%"}]}, {"smiles": "CC(C)OC(=O)C(C(=O)OC(C)C)=C1S\\C=C/S1", "note": "[Malotilate]", "values": [{"measurement": "efficacy", "value": -26.9, "unit": "%"}]}, {"smiles": "Cc1cc(/C=c2/sc3nc4ccccc4n3c2=O)c(C)n1-c1ccccc1", "note": "[ITX3]", "values": [{"measurement": "efficacy", "value": -19.9, "unit": "%"}]}, {"smiles": "CN1CCN(CC1)C2=C(NC(=O)C/3=C/NC(=O)/C=C3C(F)(F)F)C=C(C=C2)C4=CC(=CC=C4)CN5CCOCC5", "note": "[OICR-9429]", "values": [{"measurement": "efficacy", "value": -23.2, "unit": "%"}]}, {"smiles": "O=C1c2c(O)cc(O)cc2O[C@H](c2ccc(O)c(O)c2)[C@H]1O", "note": "[(▒)-Taxifolin]", "values": [{"measurement": "efficacy", "value": 4.75, "unit": "%"}]}, {"smiles": "CCOC(=O)c1ccc(OC(=O)CCCCCNC(=N)N)cc1", "note": "[Gabexate mesilate]", "values": [{"measurement": "efficacy", "value": 7.86, "unit": "%"}]}, {"smiles": "N=C(N)NN.N=C(N)NN.O=S(=O)(O)O", "note": "[AMINOGUANIDINE HYDROCHLORIDE]", "values": [{"measurement": "efficacy", "value": -9.44, "unit": "%"}]}, {"smiles": "OCc1ccccc1O[C@@H]1O[C@H](CO)[C@@H](O)[C@H](O)[C@H]1O", "note": "[Salicin]", "values": [{"measurement": "efficacy", "value": 14, "unit": "%"}]}, {"smiles": "CC1C\\2C(O)C3C(N(C)C)C(=O)\\C(=C(O)/C3(O)C(=O)C2=C(O)/C4=C1C=CC=C4O)C(N)=O", "note": "(configuration not stated) [Doxycycline]", "values": [{"measurement": "efficacy", "value": -26.7, "unit": "%"}]}, {"smiles": "CC(=O)OCC(=O)[C@@]12\\N=C(C)/O[C@@H]1C[C@H]3[C@@H]4CCC/5=C/C(=O)/C=C\\[C@]5(C)[C@H]4[C@@H](O)C[C@]23C", "note": "[Deflazacort]", "values": [{"measurement": "efficacy", "value": 9, "unit": "%"}]}, {"smiles": "COc1c(N2C[C@@H]3CCCN[C@@H]3C2)c(F)cc2c(=O)c(C(=O)O)cn(C3CC3)c12.Cl.O", "note": "[Moxifloxacin hydrochloride]", "values": [{"measurement": "efficacy", "value": -9.48, "unit": "%"}]}, {"smiles": "Cc1cccc(N(C)C(=S)Oc2ccc3ccccc3c2)c1", "note": "[Tolnaftate]", "values": [{"measurement": "efficacy", "value": -28.8, "unit": "%"}]}, {"smiles": "Cc1cc(O)cc2c1[C@]1(C)CC[C@H]3C(C)(C)CCC[C@]3(C)[C@H]1C2", "note": "[AQX-MN-100]", "values": [{"measurement": "efficacy", "value": 19.8, "unit": "%"}]}, {"smiles": "Oc1cc2c(cc1O)C1c3ccc(O)c(O)c3OCC1(O)C2", "note": "(configuration not stated) [Hematoxylin]", "values": [{"measurement": "efficacy", "value": -9.9, "unit": "%"}]}, {"smiles": "OC1=CC=C(C=C1)\\C2=C\\C(=O)C3=C(O2)C=C(O)C=C3O", "note": "[Apigenin]", "values": [{"measurement": "efficacy", "value": -82, "unit": "%"}]}, {"smiles": "CCOC(=O)Nc1ccc(NCc2ccc(F)cc2)cc1N", "note": "[Retigabine]", "values": [{"measurement": "efficacy", "value": -11.8, "unit": "%"}]}]}
